Measurements reported in PubChem BioAssay (NCI).
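Interpolation was linear, between the two tested concentrations surrounding the appropriate level; five concentrations were tested over 48 hours in 96-well plates. TGI is the concentration that stops growth completely.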

System: KM20L2 colon
Assay: inhibition of tumour cell growth, NCI panel, 48 h

## O=C1C(Cl)N(c2ccc([N+](=O)[O-])cc2)C1c1c[nH]c2ccccc12 (stereo unspecified)
  TGI: > 100 µM
